Measured values as given in patent publication US20240270727A1, “NEW SUBSTITUTED PYRIDINES AS FUNGICIDE” (BASF SE, priority 2021, published 2024).

These molecules were tested on Botrytis cinerea (assay: Example 1: activity against the grey mold Botrytis cinerea in the microtiterplate test). Settings: 31 ppm, 7 days after inoculation, relative to active compound-free control (100%).
Type: cell-based

| Compound | growth of the pathogen |
| --- | --- |
| Cc1cc(C2=NC(C(C)(C)C)COc3ccccc32)cnc1C (stereo not drawn) [Ex-1] | 0% |
| Cc1cc(C2=NCC(C)(C)Oc3ccccc32)cnc1C [Ex-2] | 0% |
| Cc1cc(C2=NC(C)(C)C(C)(C)Oc3ccccc32)cnc1C [Ex-3] | 0% |
| Cc1cc(C2=NC(C)(C)C(C)(C)Oc3ccccc32)cnc1C(F)F [Ex-4] | 0% |
| Cc1cc(C2=NCC(C)(C)Oc3ccccc32)cnc1C(F)F [Ex-8] | 0% |
| COCC1(C)Oc2ccccc2C(c2cnc(C)c(C)c2)=NC1(C)C (stereo not drawn) [Ex-9] | 0% |
| COCC1(C)Oc2ccccc2C(c2cnc(C(F)F)c(C)c2)=NC1(C)C (stereo not drawn) [Ex-10] | 0% |
| Cc1cc(C2=NC(C)C(C)(C)Oc3ccccc32)cnc1C (stereo not drawn) [Ex-11] | 0% |

The molecules below were run on Septoria tritici (assay: Comparative Example 1: activity against leaf blotch on wheat caused by Septoria tritici (microtiter plate)). Settings: 7 days after inoculation.
Type: cell-based

| Compound | Growth (%) at 125 pm SEPTTR |
| --- | --- |
| Cc1cc(C2=NCCOc3ccccc32)cnc1C [D1, reference compound] | 98% |
| Cc1cc(C2=NCC(C)(C)Oc3ccccc32)cnc1C [Ex-2] | 51% |
| Cc1cc(C2=NC(C)(C)C(C)(C)Oc3ccccc32)cnc1C [Ex-3] | 64% |
| Cc1cc(C2=NC(C)C(C)(C)Oc3ccccc32)cnc1C (stereo not drawn) [Ex-11] | 52% |

What follows are molecules tested on Leptosphaeria nodorum (assay: Comparative Example 2: activity against wheat leaf spots caused by Leptosphaeria nodorum (microtiter plate)). Settings: 7 days after inoculation.
Type: cell-based

| Compound | Growth (%) at 8 pm LEPTNO |
| --- | --- |
| Cc1cc(C2=NCCOc3ccccc32)cnc1C [D1, reference compound] | 45% |
| Cc1cc(C2=NCC(C)(C)Oc3ccccc32)cnc1C [Ex-2] | 4% |
| Cc1cc(C2=NC(C)(C)C(C)(C)Oc3ccccc32)cnc1C [Ex-3] | 30% |
| Cc1cc(C2=NC(C)C(C)(C)Oc3ccccc32)cnc1C (stereo not drawn) [Ex-11] | 6% |

Each molecule was assayed on Ustilago maydis (assay: Example 12: activity against Ustilago maydis in the microtiterplate test). Settings: 31 ppm, DOB media pH 7.
Description: The stock solutions were mixed according to the ratio, pipetted onto a micro titer plate (MTP) and diluted with water to the stated concentrations. A spore suspension of the Ustilago maydis isolates in a DOB media (ph 7) was then added.

| Compound | growth of the pathogen |
| --- | --- |
| Cc1cc(C2=NC(C(C)(C)C)COc3ccccc32)cnc1C (stereo not drawn) [Ex-1] | 0% |
| Cc1cc(C2=NC(C(C)(C)C)C(C)Oc3ccccc32)cnc1C (stereo not drawn) [Ex-24] | 0% |
| Cc1cc(C2=NC(=O)C3(CC3)Oc3c(F)cccc32)cnc1C(F)F [Ex-41] | 0% |

The molecules below were run on Fusarium culmorum (assay: Example 2: activity against Fusarium culmorum in the microtiterplate test). Settings: 31 ppm, 7 days after inoculation, relative to active compound-free control (100%).
Description: The stock solutions were mixed according to the ratio, pipetted onto a micro titer plate (MTP) and diluted with water to the stated concentrations. A spore suspension of Fusarium culmorum in an aqueous biomalt or yeast-bactopeptone-glycerine or DOB solution was then added. The plates were placed in a water vapor-saturated chamber at a temperature of 18° C. Using an absorption photometer, the MTPs were measured at 405 nm 7 days after the inoculation.

| Compound | growth of the pathogen |
| --- | --- |
| Cc1cc(C2=NCC(C)(C)Oc3ccccc32)cnc1C [Ex-2] | 1% |
| Cc1cc(C2=NC(C)(C)C(C)(C)Oc3ccccc32)cnc1C [Ex-3] | 1% |
